Laboratory results as given in patent US5672710A, “Sulfides, sulfoxides and sulfones disubstituted with a tetrahydronaphthalenyl, chromanyl, thiochromanyl or tetrahydroquinolinyl and substituted phenyl or heteroaryl group, having retinoid-like biological activity” (priority 1995, dated 1997).

Target: T1, RXRβ (Mus musculus, UniProt P28704)
T1 construct: expressed in transfected cells; host or cells: CV1
T1 sequence (P28704 1-520): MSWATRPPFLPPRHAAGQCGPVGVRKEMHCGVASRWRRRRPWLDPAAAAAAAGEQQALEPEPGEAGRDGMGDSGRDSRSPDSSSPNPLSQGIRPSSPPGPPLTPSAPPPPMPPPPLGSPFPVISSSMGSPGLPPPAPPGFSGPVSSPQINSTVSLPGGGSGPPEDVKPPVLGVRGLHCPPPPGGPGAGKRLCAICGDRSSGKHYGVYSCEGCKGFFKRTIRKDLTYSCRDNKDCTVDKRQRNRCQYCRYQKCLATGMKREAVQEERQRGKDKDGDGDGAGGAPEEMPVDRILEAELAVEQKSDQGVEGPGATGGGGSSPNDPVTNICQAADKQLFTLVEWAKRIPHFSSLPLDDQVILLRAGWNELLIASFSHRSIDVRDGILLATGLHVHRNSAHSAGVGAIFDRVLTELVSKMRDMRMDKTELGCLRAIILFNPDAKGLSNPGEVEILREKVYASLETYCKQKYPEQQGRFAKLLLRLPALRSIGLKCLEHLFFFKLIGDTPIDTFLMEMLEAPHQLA
Experiment: Holoreceptor transactivation assay, RXRβ
Type: cell-based
Conditions: CV1 cells; for EC50: 36 hours; for Emax: CV-1, relative to all trans retinoic acid, read-out: Transactivation Assay Efficacy (% of RA activity), RXRβ
Text: A holoreceptor transactivation assay and a ligand binding assay which measure the ability of the compounds of the invention to bind to the several retinoid receptor subtypes, respectively, are described in published PCT Application No. WO W093/11755 (particularly on pages 30-33 and 37-41) published on Jun. 24, 1993, the specification of which is also incorporated herein by reference. A description of the holoreceptor transactivation assay is also provided below.
CV1 cells (5,000 cells/well) were transfected with an RAR reporter plasmid MTV-TREp-LUC (50 ng) along with one of the […] expression vectors (10 ng) in an automated 96-well format by the calcium phosphate procedure of Heyman et al. Cell 68, 397-406. (8). For RXRα and RXR.GAMMA. transactivation assays, an RXR-responsive reporter plasmid CRBPII-tk-LUC (50 ng) along with the appropriate RXRexpression vectors (10 ng) was used substantially as described by Heyman et al. above, and Allegretto et al. J. Biol. Chem. 268, 26625-26633. For RXRβ transactivation assays, an RXR-responsive reporter plasmid CPRE-tk-LUC ([…]) along with RXRβ expression vector ([…]) was used as described in above. These reporters contain DRI elements from human CRBPII and certain DRI elements from promoter, respectively. (see Mangelsdorf et al. The Retinoids: Biology, Chemistry and Medicine, pp 319-349, Raven Press Ltd., New York and Heyman et al., cited above) (1, 8). A β-galactosidase (50 ng) expression vector was used as an internal control in the transfections to normalize for variations in transfection efficiency. The cells were transfected in triplicate for 6 hours, followed by incubation with retinoids for 36 hours, and the extracts were assayed for luciferase and β-galactosidase activities. The detailed experimental procedure for holoreceptor transactivations has been described in Heyman et al. above, and Allegretto et al. cited above. The results obtained in this assay in connection with examplary compounds in accordance with the present invention are expressed in EC50 numbers, as they are also in the chimeric receptor transactivation assay. The Heyman et al. Cell 68, 397-406, Allegretto et al. J. Biol. Chem. 268, 26625-26633, and Mangelsdorf et al. The Retinoids: Biology, Chemistry and Medicine, pp 319-349, Raven Press Ltd., New York, are expressly incorporated herein by reference. The results of ligand binding assay are expressed in Kd numbers. (See Cheng et al. Biochemical Pharmacology Vol. 22 pp 3099-3108, expressly incorporated herein by reference.)

For CC1(C)CCC(C)(C)c2cc(Sc3ccc(C(=O)O)cc3)ccc21 [Compound 2], the EC50 was 1.6 µM and the Emax was 80%.
In the case of CC1(C)CCC(C)(C)c2cc(S(=O)(=O)c3ccc(C(=O)O)cc3)ccc21 [Compound 5, 4-(5,6,7,8-tetrahydro-5,5,8,8-tetramethyl-2-naphthylsulfonyl)benzoic acid], the Emax is reported as 11%.
In the case of Cc1cc2c(cc1Sc1ccc(C(=O)O)cc1)C(C)(C)CCC2(C)C [Compound 7, 4-(5,6,7,8-tetrahydro-3,5,5,8,8-pentamethyl-2-Daphthylthio)benzoic acid], the EC50 is reported as 0.32 µM and the Emax is reported as 114%.
With Cc1cc2c(cc1[S+]([O-])c1ccc(C(=O)O)cc1)C(C)(C)CCC2(C)C (stereo not drawn) [Compound 9, 4-(5,6,7,8-tetrahydro-3,5,5,8,8-pentamethyl-2-naphthylsulfoxy)benzoic acid] the EC50 was 3 µM and the Emax was 29%.
With Cc1cc2c(cc1Sc1ncc(C(=O)O)s1)C(C)(C)CCC2(C)C [Compound 15, 2-(5,6,7,8-Tetrahydro-3,5,5,8,8-pentamethyl-2-naphthylthio)-5-thiazolecarboxylic acid] the EC50 was 1.3 µM and the Emax was 117%.
